# ± gives the expanded uncertainty stated by the source.
# Conditions: Fluid (supercritical or subcritical phases), Brillouin light scattering
smiles,measurement,setting,value
"CC(C)CC(C)(C)C [2,2,4-trimethylpentane]",speed of sound,"543.74 K, 6000 kPa",314.4 ± 4.6 m/s
same,speed of sound,"544.07 K, 10000 kPa",409.3 ± 5.6 m/s
same,speed of sound,"544.08 K, 12000 kPa",448.4 ± 6 m/s
same,speed of sound,"547.77 K, 3000 kPa",135.2 ± 7.2 m/s
same,speed of sound,"548.38 K, 4000 kPa",216.1 ± 6 m/s
same,speed of sound,"548.79 K, 5000 kPa",262.4 ± 4.9 m/s
same,speed of sound,"548.93 K, 12000 kPa",439.8 ± 5.9 m/s
same,speed of sound,"548.94 K, 6000 kPa",301.9 ± 4.5 m/s
same,speed of sound,"549.02 K, 10000 kPa",399.6 ± 5.5 m/s
same,speed of sound,"552.48 K, 3000 kPa",103.8 ± 6.9 m/s
same,speed of sound,"553.35 K, 4000 kPa",194.1 ± 6.5 m/s
same,speed of sound,"553.8 K, 5000 kPa",247.6 ± 5 m/s
same,speed of sound,"553.96 K, 6000 kPa",286.4 ± 4.4 m/s
same,speed of sound,"554.24 K, 12000 kPa",430.8 ± 5.8 m/s
same,speed of sound,"554.27 K, 10000 kPa",392.6 ± 5.5 m/s
same,speed of sound,"558.01 K, 3000 kPa",97.9 ± 5.6 m/s
same,speed of sound,"558.52 K, 10000 kPa",386.7 ± 5.4 m/s
same,speed of sound,"558.54 K, 12000 kPa",426 ± 5.7 m/s
same,speed of sound,"559.12 K, 6000 kPa",272.8 ± 4.8 m/s
same,speed of sound,"559.16 K, 5000 kPa",232.4 ± 5 m/s
same,speed of sound,"559.18 K, 4000 kPa",172.1 ± 6 m/s
same,speed of sound,"563.28 K, 4000 kPa",154.4 ± 5.4 m/s
same,speed of sound,"564.27 K, 5000 kPa",214.5 ± 5.1 m/s
same,speed of sound,"564.68 K, 12000 kPa",415.3 ± 5.6 m/s
same,speed of sound,"564.81 K, 10000 kPa",374.5 ± 5.3 m/s
same,speed of sound,"564.85 K, 6000 kPa",257.3 ± 4.2 m/s
same,speed of sound,"567.24 K, 3000 kPa",109.9 ± 2.6 m/s
same,speed of sound,"568.08 K, 4000 kPa",137.3 ± 4.3 m/s
same,speed of sound,"569.24 K, 5000 kPa",201.2 ± 5.2 m/s
same,speed of sound,"569.81 K, 12000 kPa",404.7 ± 5.5 m/s
same,speed of sound,"570.06 K, 6000 kPa",244.3 ± 4.1 m/s
same,speed of sound,"570.54 K, 10000 kPa",362.4 ± 5.2 m/s
same,speed of sound,"570.76 K, 3000 kPa",112.7 ± 1.6 m/s
same,speed of sound,"573.32 K, 4000 kPa",122.1 ± 5.4 m/s
same,speed of sound,"574.23 K, 5000 kPa",187 ± 5.2 m/s
same,speed of sound,"574.7 K, 6000 kPa",233 ± 4 m/s
same,speed of sound,"574.8 K, 12000 kPa",398.5 ± 5.5 m/s
same,speed of sound,"575.07 K, 10000 kPa",354 ± 5.1 m/s
same,speed of sound,"576.9 K, 3000 kPa",117.3 ± 1.6 m/s
same,speed of sound,"578.09 K, 4000 kPa",114.9 ± 2.8 m/s
same,speed of sound,"579 K, 5000 kPa",173.2 ± 5 m/s
same,speed of sound,"579.62 K, 6000 kPa",222.1 ± 3.9 m/s
same,speed of sound,"580.26 K, 12000 kPa",388.5 ± 5.4 m/s
same,speed of sound,"580.32 K, 10000 kPa",343.6 ± 5 m/s
same,speed of sound,"582.97 K, 4000 kPa",114.7 ± 2.2 m/s
same,speed of sound,"583.34 K, 3000 kPa",121.9 ± 1.7 m/s
same,speed of sound,"584.13 K, 5000 kPa",161.6 ± 4.5 m/s
same,speed of sound,"584.82 K, 6000 kPa",208.9 ± 3.9 m/s
same,speed of sound,"585.19 K, 12000 kPa",379.7 ± 5.2 m/s
same,speed of sound,"585.35 K, 10000 kPa",337.5 ± 5 m/s
same,speed of sound,"586.96 K, 3000 kPa",125 ± 1.8 m/s
same,speed of sound,"587.1 K, 4000 kPa",116 ± 1.8 m/s
same,speed of sound,"588.18 K, 5000 kPa",151.1 ± 4 m/s
same,speed of sound,"588.98 K, 6000 kPa",199.3 ± 3.8 m/s
same,speed of sound,"589.39 K, 12000 kPa",374.8 ± 5.2 m/s
same,speed of sound,"589.65 K, 10000 kPa",331.2 ± 4.9 m/s
same,speed of sound,"592.49 K, 4000 kPa",117.9 ± 1.6 m/s
same,speed of sound,"592.79 K, 3000 kPa",130.8 ± 2 m/s
same,speed of sound,"593.39 K, 5000 kPa",140.6 ± 3.6 m/s
same,speed of sound,"594.09 K, 6000 kPa",191.7 ± 3.7 m/s
same,speed of sound,"594.93 K, 12000 kPa",363.8 ± 5.1 m/s
same,speed of sound,"595.15 K, 10000 kPa",318.7 ± 4.8 m/s
same,speed of sound,"597.57 K, 4000 kPa",119.2 ± 1.6 m/s
same,speed of sound,"597.98 K, 3000 kPa",136.1 ± 2.2 m/s
same,speed of sound,"598.54 K, 5000 kPa",135.1 ± 3.2 m/s
same,speed of sound,"599.18 K, 6000 kPa",184.6 ± 3.6 m/s
same,speed of sound,"600.35 K, 10000 kPa",311.6 ± 4.7 m/s
same,speed of sound,"600.58 K, 12000 kPa",356.1 ± 5 m/s
same,speed of sound,"602.34 K, 4000 kPa",121.2 ± 1.6 m/s
same,speed of sound,"602.56 K, 3000 kPa",141.1 ± 2.4 m/s
same,speed of sound,"603.22 K, 5000 kPa",132.5 ± 2.8 m/s
same,speed of sound,"604.02 K, 6000 kPa",175.1 ± 3.5 m/s
same,speed of sound,"604.68 K, 12000 kPa",350.2 ± 4.9 m/s
same,speed of sound,"605.01 K, 10000 kPa",304.3 ± 4.6 m/s
same,speed of sound,"607.09 K, 4000 kPa",124.3 ± 1.7 m/s
same,speed of sound,"607.67 K, 5000 kPa",131 ± 2.4 m/s
same,speed of sound,"607.97 K, 3000 kPa",145.8 ± 2.5 m/s
same,speed of sound,"608.43 K, 6000 kPa",167.7 ± 3.4 m/s
same,speed of sound,"609.5 K, 12000 kPa",342.6 ± 4.8 m/s
same,speed of sound,"609.62 K, 10000 kPa",295.9 ± 4.5 m/s
same,speed of sound,"612.44 K, 4000 kPa",129.9 ± 1.8 m/s
same,speed of sound,"612.74 K, 5000 kPa",131.9 ± 2.2 m/s
same,speed of sound,"613.31 K, 3000 kPa",150.4 ± 2.5 m/s
same,speed of sound,"613.49 K, 6000 kPa",164.3 ± 3.3 m/s
same,speed of sound,"614.69 K, 10000 kPa",286.8 ± 4.4 m/s
same,speed of sound,"614.9 K, 12000 kPa",336.6 ± 4.8 m/s
same,speed of sound,"617.81 K, 4000 kPa",134.8 ± 1.9 m/s
same,speed of sound,"618.08 K, 5000 kPa",135 ± 2 m/s
same,speed of sound,"618.6 K, 6000 kPa",159.9 ± 3.2 m/s
same,speed of sound,"618.84 K, 3000 kPa",154.9 ± 2.6 m/s
same,speed of sound,"619.6 K, 12000 kPa",329.3 ± 4.7 m/s
same,speed of sound,"619.8 K, 10000 kPa",281.3 ± 4.3 m/s
same,speed of sound,"622.75 K, 4000 kPa",139 ± 2 m/s
same,speed of sound,"622.82 K, 5000 kPa",137.2 ± 1.9 m/s
same,speed of sound,"623.43 K, 6000 kPa",156.1 ± 3.1 m/s
same,speed of sound,"623.75 K, 3000 kPa",159.5 ± 2.6 m/s
same,speed of sound,"624.61 K, 12000 kPa",321.5 ± 4.6 m/s
same,speed of sound,"624.7 K, 10000 kPa",276.4 ± 4.3 m/s
same,speed of sound,"627.69 K, 5000 kPa",141.2 ± 1.9 m/s
same,speed of sound,"628.07 K, 4000 kPa",145.5 ± 2.1 m/s
same,speed of sound,"628.11 K, 6000 kPa",153.4 ± 2.9 m/s
same,speed of sound,"629.13 K, 10000 kPa",269.4 ± 4.2 m/s
same,speed of sound,"629.2 K, 12000 kPa",316.9 ± 4.5 m/s
same,speed of sound,"629.42 K, 3000 kPa",164 ± 2.5 m/s
same,speed of sound,"631.25 K, 5000 kPa",143.4 ± 1.9 m/s
same,speed of sound,"631.51 K, 6000 kPa",156 ± 2.3 m/s
same,speed of sound,"632.19 K, 4000 kPa",148.1 ± 2.1 m/s
same,speed of sound,"633.71 K, 3000 kPa",166.1 ± 2.6 m/s

# — the NIST ThermoML archive (doi:10.1021/acs.jced.7b00712)
